The target of one experiment is SRC (Homo sapiens, UniProt P12931). Briefly: Kinase inhibition activity test, isotope labeling: SRC. The class given is biochemical. The note with it: ATP 45 μM; read-out: SRC IC50 value (inhibitory activity value). How it is done:
The purpose of this experiment was to test the inhibitory activity of the compound of the invention for in vitro kinase with the isotope labeling method (the γ phosphate group on ATP was labeled). In this experiment, the in vitro activity inhibition of such kinases as FLT3, VEGFR2, FLT1, FLT4, RET, c-RAF, B-RAF, c-KIT, PDGFα, PDGFβ, FGFR2, FGFR1, EphA2, EphB2, SRC, ABL, ALK and Met was tested respectively. Staurosporine was reference molecule (or referred to as positive control). The kinase inhibition activity of the test compound was expressed by half-inhibitory concentration (IC50) or the kinase activity inhibition rate of the test compound at a concentration of 10 μM. The IC50 value could be obtained by calculating the kinase activity inhibition rate of the test compound at different concentrations.
20 mM 3-(N-morpholinyl)propanesulfonic acid (MOPS); 1 mM ethylenediaminetetraacetic acid (EDTA), 0.01% Brij 35 (Brij-35), 5% glycerol, 0.1% mercaptoethanol, 1 mg/mL bovine serum albumin (BSA), 10 mM manganous dichloride solution (MnCl2), 0.1 mg/mL glutamic acid/tyrosine (4:1) polypeptide (poly(Glu, Tyr)4:1), 50 μM EAIYAAPFAKKK (substrate of FLT3), 0.33 mg/mL myelin basic protein (substrate of VEGFR2), 250 μM KKKSPGEYVNIEFG (substrate of FLT1(h)), 500 μM GGEEEEYFELVKKKK (substrate of FLT4(h)), 250 μM KKKSPGEYVNIEFG (substrate of RET), 0.66 mg/mL myelin basic protein (substrate of C-RAF), 250 μM GGMEDIYFEFMGGKKK (substrate of c-Kit), 250 μM GGMEDIYFEFMGGKKK (substrate of PDGFα), 250 μM KKKSPGEYVNIEFG (substrate of FGFR1), […] GGEEEEYFELVKKKK (substrate of SRC), 50 μM EAIYAAPFAKKK (substrate of ABL), 250 μM KKKSPGEYVNIEFG (substrate of ALK), 250 μM KKKSPGEYVNIEFG (substrate of Met(h)), 10 mM magnesium acetate and γ-^33 P-ATP solution, stop buffer (3% phosphate buffer), washing buffer (75 mM phosphate solution), methanol, Filtermat A membrane, FLT3, VEGFR2, FLT3, VEGFR2, FLT1, FLT4, RET, c-RAF, B-RAF, c-KIT, PDGFRα, PDGFRβ, FGFR2, FGFR1, EphA2, EphB2, SRC, ABL, ALK, Met and other kinases, and the test compounds.
Buffers (8 mM MOPS with pH value of 7.0, 0.2 mM EDTA and 10 mM MnCl2), (5-10 mU) kinases to be tested (FLT3, VEGFR2, FLT1, FLT4, RET, c-RAF, B-RAF, c-KIT, PDGFRα, PDGFRβ, FGFR2, FGFR1, EphA2, EphB2, SRC, ABL, ALK and Met), substrates of kinases to be tested (refer to experimental materials), 10 mM magnesium acetate and γ-^33 P-ATP solution, and test compounds at different concentrations were added to a reaction tube orderly. […] Reaction was terminated with 5 μL 3% phosphate buffer finally, and 10 μL reaction solution was titrated to the Filtermat A membrane; solution was washed for 3 times with 75 mM phosphate solution with each time lasting 5 minutes, and then washed once with methanol. […]

The subject of experiment [1] is human leukemia cell line MV4-11. The note with it: for in vivo tumor growth inhibition effect: oral intragastric q.d., MV4-11 tumors 400-500 mm^3 at start; for inhibition effect compared with positive control sorafenib: sorafenib 3 mg/kg q.d., MV4-11 model.
Method: The cell line used was human leukemia cell line MV4-11. The drug (Sorafenib) undergoing anti-leukemia clinical trial was used as the positive control.
NOD-SCID mice at age of 6 to 8 weeks were used, and MV4-11 cells were inoculated at the subcutaneous posterior ribs of the mice at a concentration of 1×10^7/0.1 mL/mouse; after the tumors grew to 400-500 mm^3 (for about 20 days), mice (n=6) were grouped and subject to oral intragastric administration.
Observation targets: Mouse weight and long and short diameters of tumor were measured every 3 days, and tumor volume (length×width^2×0.52) was calculated to observe for diarrhea, convulsion, rash, significant weight loss and other reactions.
Experiment [2] deals with inter segmental blood vessels of transgenic zebrafish (FLK1-GFP). Briefly: Angiogenesis inhibition activity test in transgenic zebrafish (FLK1-GFP). The class given is in vivo. The note with it: concentration of 1 ug/mL, compared with the control group. How it is done: The new blood vessel inhibition activity of the test compounds was expressed by the inhibition degree of the test compounds for the inter segmental blood vessels of zebrafish at concentrations of 10 ug/mL, 3 ug/mL and 1 ug/mL.
Acquisition of zebrafish embryos: The zebrafish used by this laboratory was fluorescent transgenic zebrafish (FLK1: GFP). Refer to Westerfield method for breeding and cultivation of zebrafish. The day before spawns were obtained, male and female zebrafish were paired at the ratio of 1:1. On the second day, the male and female zebrafish naturally mated and spawned at a temperature of about 28° C. under sufficient illumination. Enough zebrafish embryos were collected, washed, placed into embryo culture media, and put into a 28° C. incubator for culture. The survival of embryos was identified by morphological and phylogenetic standards, and dead embryos were white and taken out timely to prevent deterioration of water quality. […]
Result observation: Thirty one hours after the zebrafish embryos were fertilized, spawns were taken out and hatched zebrafish was peeled off; and then the hatched zebrafish was put onto slide, 1‰ tricaine solution was added to narcotize the fish body, and 1.5% methylcellulose was used to fix the fish body; and the inter segmental vessels (ISV) were observed, counted and photographed under a fluorescence microscope. […]

Read-outs that look alike come from different tables or passages of the source.

Broadly, the IC50 is the concentration at which inhibition is half-maximal.

SRC, sequence (P12931 whole entry): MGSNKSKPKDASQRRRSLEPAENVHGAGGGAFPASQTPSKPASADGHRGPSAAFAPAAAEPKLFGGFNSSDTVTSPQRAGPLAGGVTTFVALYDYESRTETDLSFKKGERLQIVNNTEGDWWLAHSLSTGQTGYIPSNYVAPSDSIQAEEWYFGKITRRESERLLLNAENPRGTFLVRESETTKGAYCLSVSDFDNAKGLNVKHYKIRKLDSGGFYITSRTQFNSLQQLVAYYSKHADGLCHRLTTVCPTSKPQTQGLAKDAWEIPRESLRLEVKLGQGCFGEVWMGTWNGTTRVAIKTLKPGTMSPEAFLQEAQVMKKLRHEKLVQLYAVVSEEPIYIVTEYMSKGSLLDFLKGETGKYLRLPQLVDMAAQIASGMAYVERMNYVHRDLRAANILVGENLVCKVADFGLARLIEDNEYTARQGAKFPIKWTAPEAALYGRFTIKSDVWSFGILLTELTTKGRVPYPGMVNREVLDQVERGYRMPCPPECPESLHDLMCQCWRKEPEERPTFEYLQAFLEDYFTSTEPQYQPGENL

With `O=C(Nc1ccc(Oc2ncnc3[nH]ncc23)cc1)Nc1ccc(Cl)c(C(F)(F)F)c1` [4a-2], the IC50 at SRC was below 10 µM. For the same molecule, the “in vivo tumor growth inhibition effect” value in experiment [1] (daily dose of 3 mg/kg or above) is “obviously inhibit tumor growth or extinct tumor completely”. The “inhibition effect compared with positive control sorafenib” value in experiment [1] was “superior to the positive control (sorafenib)”.
Consider `O=C(Nc1ccc(Oc2ncnc3[nH]ncc23)cc1)Nc1cccc(C(F)(F)F)c1` [4a-6], for which the 50% inhibitory concentration (IC50) at SRC came to 3.01 µM. Also, the “angiogenesis inhibition for FLK1 transgenic zebrafish” value in experiment [2] was “inhibit angiogenesis of zebrafish very well”.
As to `CC(C)(C)c1cc(NC(=O)Nc2ccc(Oc3ncnc4[nH]ncc34)cc2)on1` [4a-25], on SRC, the half-inhibitory concentration (IC50) is below 10 µM.
As for `CC(C)(C)c1cc(NC(=O)Nc2ccc(Oc3ncnc4[nH]ncc34)c(F)c2)no1` [4a-31], at SRC, the half-maximal inhibitory concentration (IC50) was below 10 µM. For the same molecule, the “angiogenesis inhibition for FLK1 transgenic zebrafish” value in experiment [2] was “inhibit angiogenesis of zebrafish very well”. Also, the “in vivo tumor growth inhibition effect” value in experiment [1] (daily dose of 1 mg/kg) is “obviously inhibit tumor growth”; in experiment [1] (daily dose of 3 mg/kg or above), “extinct tumor completely”. The “inhibition effect compared with positive control sorafenib” value in experiment [1] was “superior to the positive control (sorafenib)”.

The values above are taken from patent publication US9828375B2, “4-position substituted pyrazolopyrimidine derivative, and use thereof in drug preparation” (Guangxi Wuzhou Pharmaceuticals (Group) Co., Ltd., priority 2012, dated 2017).
